# Assay results from patent US8148387B2, “AKT and P70 S6 kinase inhibitors” (Eli Lilly and Company, priority 2008, dated 2012).
# Legend:
# AKT1 = biological target: T1, AKT1 (Homo sapiens, UniProt P31749); experiment: AKT1 In Vitro Enzyme Assay (Transcreener Kinase ADP-FP); type: biochemical; settings: 20 micromolar ATP; read-out: IC50 against AKT1
# T1 construct: His tag; host or cells: insect cells
# Description: Compound IC50 values against AKT1 target are determined using the AKT1 Transcreener™ Kinase ADP-FP Assay. This assay assesses the activity of AKT1 in the presence of compound inhibitors by measuring the concentration of ADP formed in a kinase reaction. The kinase reactions (25 μL reaction volumes) are performed in 96-well half-area black polystyrene plates. ATP is added to start the reactions. Final reaction conditions are 56 millimolar HEPES pH 7.4, 0.008% TRITON™ X-100, 5 millimolar magnesium chloride, 30 micromolar Crosstide peptide, 20 micromolar ATP, hAKT1 Human Recombiant, V-AKT Murine Thymoma Viral Oncogene Homolog 1, histidine-tagged, expressed in insect cells, 4% DMSO and serial dilutions of compound (diluted 1:3 from 20,000 to 1 nanomolar). […] Quenched reactions are incubated for 4-16 hours, and then read in a Tecan Ultra Evolution plate reader in Fluorescence Polarization mode using polarizing filters of Ex612nm and Em633nm wavelength. […] The IC50 value for each compound is derived using percent inhibition data which is calculated using the micromolar ADP reaction data relative to on-plate controls (active enzyme versus 100 millimolar inhibited enzyme controls). […]
# [1] = tested on: Phosphorylation of p70 S6K(T389); experiment: p70 S6K/AKT In Vivo Target Inhibition, U87MG xenograft, p-p70 S6K; parameters: species or system athymic nude mice; settings: Mus musculus, U-87 MG, IV Dose 12.5 mpk, U87MG tumors
# Description: (§1) U87MG human glioblastoma cells (5×106) are subcutaneously implanted into the flank of athymic nude mice in 0.2 mL of matrigel. Two weeks post-implantation, mice are dosed orally or parenterally according to a time course, single dose/single time point, or dose response protocol for the determination of TMED50 (threshold minimum effective dose). Tumors are flash frozen at harvest and blood is collected for the determination of parent compound plasma exposure and the calculation of TMEC50 (threshold minimum effective concentration) in the case of dose response studies. Tumors or tissues are pulverized in liquid N2 and lysed in 400 μL of XY Lysis Buffer (10 μg/mL Leupeptin, 10 μg/mL Trypsin-Chymotrypsin Inhibitor, 10 μg/mL Tosyl phenyl-alanyl chloromethyl ketone, 10 μg/mL Aprotinin, 60 mM Beta-Glycerol Phosphate, 1% Triton X100, 25 mM Tris pH 7.5, 2.5 mM Pyrophosphate, 150 mM NaCl, 2 mM p-tosyl-L-arginine methyl ester, 15 mM para-nitrophenyl phosphate, 5 mM Benzamidine, 1 mM Na Vanadate, 10 mM NaF, 50 μg/mL phenyl-methane sulfonyl fluoride, 1 mM 1,4-Dithiothreitol (DTT), 15 mM EDTA pH 8.0, 5 mM EGTA pH 8.0, 1 μM Microcystin, 1 μM Okadaic Acid, and 1 Roche Complete protease inhibitor mini-tablet per 10 mL) using Lysing Matrix D tubes (MP Biomedicals, Solon, Ohio, cat#6913-500) and a BIO101 Thermo Savant Fast Prep FP12. Lysates are aliquoted and either assayed immediately or stored at −80° C. for later testing. In Vivo Target Inhibition of p70 S6K and AKT is measured utilizing Meso Scale Discovery (Gaithersburg, Md.) ELISA technology to assess effects on phosphorylation of the serine 240/244 site of the downstream effector S6RP. Phosphorylation of p70 S6K(T389), AKT(5473) and GSK3β(S9) is also assessed using this technology in a multiplex format. In summary, 20 μg of lysate is added to carbon electrode containing 96-well plates pre-spotted with the appropriate capture antibodies. The protein of interest is probed using a ruthenium labeled detection antibody. Upon the passage of current over the electrode in the presence of read buffer containing the co-reactant TPA, electro-chemiluminescence results in the generation of light which is quantified and recorded using the MSD Sector 6000 instrument. For each study, percent inhibitions are calculated relative to the vehicle control group and ANOVA analysis is performed using the JMP software package for the determination of statistical significance.
# pAKT S473 = experiment: p70 S6K/AKT In Vivo Target Inhibition, U87MG xenograft, pAKT; parameters: species or system athymic nude mice; settings: Mus musculus, U-87 MG, IV Dose 12.5 mpk, U87MG tumors
# Description: as §1
# T1 sequence (P31749 whole entry): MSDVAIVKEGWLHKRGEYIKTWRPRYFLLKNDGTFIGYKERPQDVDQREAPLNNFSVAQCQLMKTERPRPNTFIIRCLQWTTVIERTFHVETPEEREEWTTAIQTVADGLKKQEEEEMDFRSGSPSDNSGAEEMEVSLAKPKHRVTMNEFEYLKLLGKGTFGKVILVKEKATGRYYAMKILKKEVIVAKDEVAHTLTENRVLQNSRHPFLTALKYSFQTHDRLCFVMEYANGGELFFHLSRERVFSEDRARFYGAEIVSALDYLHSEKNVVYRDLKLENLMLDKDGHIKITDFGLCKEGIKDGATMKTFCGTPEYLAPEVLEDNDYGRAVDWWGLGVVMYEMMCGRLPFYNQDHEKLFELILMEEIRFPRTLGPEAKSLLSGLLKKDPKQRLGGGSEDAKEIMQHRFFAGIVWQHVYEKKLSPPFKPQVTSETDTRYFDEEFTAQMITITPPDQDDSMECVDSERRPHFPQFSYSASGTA
smiles,measurement,setting,value
CN(C)CCn1cc(-c2ccc(F)c(C(F)(F)F)c2)nc1C1CCN(c2ncnc3c2C(C)(C)C(=O)N3)CC1 [Example 31],IC50,AKT1,6 nM
same,inhibition at 12.5 mg/kg,[1]; 1 hr post IV dose,77.3%
same,inhibition at 12.5 mg/kg,[1]; 2 hr post IV dose,76.1%
same,inhibition at 12.5 mg/kg,[1]; 4 hr post IV dose,76.1%
same,inhibition at 12.5 mg/kg,[1]; 6 hr post IV dose,76.1%
same,inhibition at 12.5 mg/kg,[1]; 8 hr post IV dose,70.7%
same,inhibition at 12.5 mg/kg,[1]; 24 hr post IV dose,61.6%
same,inhibition at 12.5 mg/kg,pAKT S473; 1 hr post IV dose,4%
same,inhibition at 12.5 mg/kg,pAKT S473; 2 hr post IV dose,-22.3%
same,inhibition at 12.5 mg/kg,pAKT S473; 4 hr post IV dose,-19.2%
same,inhibition at 12.5 mg/kg,pAKT S473; 6 hr post IV dose,-26.3%
same,inhibition at 12.5 mg/kg,pAKT S473; 8 hr post IV dose,-9.4%
same,inhibition at 12.5 mg/kg,pAKT S473; 24 hr post IV dose,22.6%
